The values that follow come from US8124610B2, “Sodium channel inhibitors” (Icagen Inc., priority 2007, dated 2012).

Experiment [1] has as its target T1, hSCN3A (Homo sapiens, UniProt Q9NY46).
T1 construct: expressed in transfected cells
Put plainly: Whole-cell patch-clamp electrophysiology (conventional or PatchXpress), HEK cells expressing hSCN3A, estimated IC-50. In kind it is cell-based. The note with it: read-out: SCN3A EIC-50. The procedure: Human Embryonic Kidney (HEK) cells were transfected with hSCN3A or hSCN9A constructs using lipofectamine reagent (Invitrogen), using standard techniques. Cells stably expressing the hSCN3A or hSCN9A constructs were identified by their resistance to G-418 (400 μg/ml). Clones were screened for expression using the whole-cell voltage-clamp technique. HEK cells stably transfected with hSCN3A or hSCN9A were maintained in DMEM medium supplemented with 10% heat-inactivated fetal bovine serum and 400 μg/ml G418 sulfate in an incubator at 37° C. with a humidified atmosphere of 10% CO2. For HTS, cells were harvested from flasks by trypsinization and replated in an appropriate multi-well plate (typically 96 or 384 wells/plate) such that confluence would be achieved within 24 hours of plating. For electrophysiological studies, cells were removed from the culture flask by brief trypsinization and replated at low density onto glass cover slips. Cells were typically used for electrophysiological experiments within 24 to 72 h after plating. Cover slips containing HEK cells expressing hSCN3A or hSCN9A were placed in a bath on the stage of an inverted microscope and perfused (approximately 1 ml/min) with extracellular solution of the following composition: 138 mM NaCl, 2 mM CaCl2, 5.4 mM KCl, 1 mM MgCl2, 10 mM glucose, and 10 mM HEPES, pH 7.4, with NaOH. […] All recordings were made at room temperature (22-24° C.) using AXOPATCH 200B amplifiers and PCLAMP software (Axon Instruments, Burlingame, Calif.) or PatchXpress 7000 hardware and associated software (Axon Instruments, Burlingame, Calif.). hSCN3A or hSCN9A currents in HEK cells were measured using the whole-cell configuration of the patch-clamp technique (Hamill et al., 1981). […] As a result, voltage errors were negligible and no correction was applied. Current records were acquired at 20 to 50 KHz and filtered at 5 to 10 KHz. HEK cells stably transfected with hSCN3A or hSCN9A were viewed under Hoffman contrast optics and placed in front of an array of flow pipes emitting either control or compound-containing extracellular solutions. All compounds were dissolved in dimethyl sulfoxide to make 10 mM stock solutions, which were then diluted into extracellular solution to attain the final concentrations desired. […] The voltage-dependence of inactivation was determined by applying a series of depolarizing prepulses (8 sec long in 10 mV increments) from a negative holding potential. The voltage was then immediately stepped to 0 mV to assess the magnitude of the sodium current. Currents elicited at 0 mV were plotted as a function of prepulse potential to allow estimation of the voltage midpoint of inactivation (V1/2). Cells were then voltage clamped at the empirically determined V1/2. Compounds were tested for their ability to inhibit hSCN3A or hSCN9A sodium channels by activating the channel with a 20 msec voltage step to 0 mV following an 8 second conditioning prepulse to the empirically determined V1-2 (Table B). Compound effect (% inhibition) was determined by difference in current amplitude before and after application of test compounds. […] In some cases electrophysiological assays were conducted with PatchXpress 7000 hardware and associated software (Molecular Devices Corp) (Table B). All assay buffers and solutions were identical to those used in conventional whole-cell voltage clamp experiments described above. hSCN3A or hSCN9A containing cells were grown as above to 50%-80% confluency and harvested by trypsinization. Trypsinized cells were washed and resuspended in extracellular buffer at a concentration of 1×10^6 cells/ml. The onboard liquid handling facility of the PatchXpress was used for dispensing cells and application of test compounds. Determination of the voltage midpoint of inactivation was as described for conventional whole-cell recordings. Cells were then voltage-clamped to the empirically determined V1/2 and current was activated by a 20 msec voltage step to 0 mV.

Experiment [2] concerns the target T2, hSCN9A (Homo sapiens, UniProt Q15858).
T2 construct: expressed in transfected cells
As to the kind of experiment: Whole-cell patch-clamp electrophysiology (conventional or PatchXpress), HEK cells expressing hSCN9A, estimated IC-50. In kind it is cell-based. The note with it: read-out: SCN9A EIC-50. The procedure, abridged:
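Stably transfected HEK cells recorded by whole-cell voltage clamp (manual or PatchXpress) at 22–24 °C in pH 7.4 HEPES-buffered extracellular solution. Cells held at the empirically determined inactivation V1/2 after an 8 s prepulse, then stepped to 0 mV for 20 ms; % inhibition from current amplitude before vs after compound.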

[3] abbreviates: Table V, estimated IC-50 from single point electrophysiology, cells clamped at V1/2.
Where [4] appears, read: estimated IC-50, HEK cells expressing hSCN3A, class symbols or bounds.
[5] abbreviates: estimated IC-50, HEK cells expressing hSCN9A, class symbols or bounds.

Where two headings read alike, the source gives them in different places. Where only a bound is given, the exact number is not on record here.

T1 sequence (Q9NY46 whole entry): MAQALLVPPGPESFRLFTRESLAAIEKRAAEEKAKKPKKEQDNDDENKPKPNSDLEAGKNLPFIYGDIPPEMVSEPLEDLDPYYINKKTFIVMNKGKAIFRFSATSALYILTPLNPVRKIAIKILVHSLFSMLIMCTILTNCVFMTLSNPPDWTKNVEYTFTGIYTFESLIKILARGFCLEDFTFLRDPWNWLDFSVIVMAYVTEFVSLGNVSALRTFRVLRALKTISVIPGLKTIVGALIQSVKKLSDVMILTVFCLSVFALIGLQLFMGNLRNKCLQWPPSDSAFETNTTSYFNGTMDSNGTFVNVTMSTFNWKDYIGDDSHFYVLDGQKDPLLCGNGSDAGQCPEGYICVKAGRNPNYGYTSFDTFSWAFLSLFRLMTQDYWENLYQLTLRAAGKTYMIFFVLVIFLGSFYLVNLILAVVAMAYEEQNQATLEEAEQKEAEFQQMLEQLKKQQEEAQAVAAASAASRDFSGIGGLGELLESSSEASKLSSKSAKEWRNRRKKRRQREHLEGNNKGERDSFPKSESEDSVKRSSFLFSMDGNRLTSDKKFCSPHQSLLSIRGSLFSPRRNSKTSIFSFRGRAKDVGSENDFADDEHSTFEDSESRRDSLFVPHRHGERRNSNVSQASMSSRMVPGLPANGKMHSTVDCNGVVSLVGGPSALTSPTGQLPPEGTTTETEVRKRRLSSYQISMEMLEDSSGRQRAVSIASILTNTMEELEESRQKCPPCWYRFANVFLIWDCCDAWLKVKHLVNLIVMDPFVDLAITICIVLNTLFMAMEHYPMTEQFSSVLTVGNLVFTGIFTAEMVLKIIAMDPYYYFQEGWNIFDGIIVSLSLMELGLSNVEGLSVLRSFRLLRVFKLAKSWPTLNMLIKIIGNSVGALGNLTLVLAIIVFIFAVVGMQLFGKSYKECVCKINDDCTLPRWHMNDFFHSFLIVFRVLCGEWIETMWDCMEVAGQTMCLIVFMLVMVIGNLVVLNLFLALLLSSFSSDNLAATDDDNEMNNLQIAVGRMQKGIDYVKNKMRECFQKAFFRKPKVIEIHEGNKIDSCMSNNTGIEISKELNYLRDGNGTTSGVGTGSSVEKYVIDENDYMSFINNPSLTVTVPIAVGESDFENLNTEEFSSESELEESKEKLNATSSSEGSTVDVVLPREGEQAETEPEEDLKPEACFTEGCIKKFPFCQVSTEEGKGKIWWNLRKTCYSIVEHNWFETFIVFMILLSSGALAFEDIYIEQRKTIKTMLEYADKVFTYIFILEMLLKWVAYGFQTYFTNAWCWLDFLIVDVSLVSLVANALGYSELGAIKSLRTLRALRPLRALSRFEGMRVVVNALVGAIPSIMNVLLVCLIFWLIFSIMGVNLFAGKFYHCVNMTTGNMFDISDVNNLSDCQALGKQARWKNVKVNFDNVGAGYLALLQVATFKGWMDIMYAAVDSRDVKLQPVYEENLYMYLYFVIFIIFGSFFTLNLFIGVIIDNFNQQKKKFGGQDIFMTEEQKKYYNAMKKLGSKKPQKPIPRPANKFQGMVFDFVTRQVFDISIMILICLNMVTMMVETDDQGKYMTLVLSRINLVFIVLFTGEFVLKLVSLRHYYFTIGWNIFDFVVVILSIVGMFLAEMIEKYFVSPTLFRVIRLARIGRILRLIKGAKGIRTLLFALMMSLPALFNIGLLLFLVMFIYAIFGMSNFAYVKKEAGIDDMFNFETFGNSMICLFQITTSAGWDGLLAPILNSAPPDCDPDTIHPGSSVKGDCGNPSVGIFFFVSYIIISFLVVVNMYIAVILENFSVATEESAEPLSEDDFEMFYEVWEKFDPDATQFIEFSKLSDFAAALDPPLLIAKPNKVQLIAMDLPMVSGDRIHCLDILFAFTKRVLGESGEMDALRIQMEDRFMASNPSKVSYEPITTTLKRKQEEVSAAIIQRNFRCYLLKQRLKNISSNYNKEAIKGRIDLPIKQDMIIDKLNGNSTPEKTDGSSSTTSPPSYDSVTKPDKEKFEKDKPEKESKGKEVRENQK
T2 sequence (Q15858 whole entry): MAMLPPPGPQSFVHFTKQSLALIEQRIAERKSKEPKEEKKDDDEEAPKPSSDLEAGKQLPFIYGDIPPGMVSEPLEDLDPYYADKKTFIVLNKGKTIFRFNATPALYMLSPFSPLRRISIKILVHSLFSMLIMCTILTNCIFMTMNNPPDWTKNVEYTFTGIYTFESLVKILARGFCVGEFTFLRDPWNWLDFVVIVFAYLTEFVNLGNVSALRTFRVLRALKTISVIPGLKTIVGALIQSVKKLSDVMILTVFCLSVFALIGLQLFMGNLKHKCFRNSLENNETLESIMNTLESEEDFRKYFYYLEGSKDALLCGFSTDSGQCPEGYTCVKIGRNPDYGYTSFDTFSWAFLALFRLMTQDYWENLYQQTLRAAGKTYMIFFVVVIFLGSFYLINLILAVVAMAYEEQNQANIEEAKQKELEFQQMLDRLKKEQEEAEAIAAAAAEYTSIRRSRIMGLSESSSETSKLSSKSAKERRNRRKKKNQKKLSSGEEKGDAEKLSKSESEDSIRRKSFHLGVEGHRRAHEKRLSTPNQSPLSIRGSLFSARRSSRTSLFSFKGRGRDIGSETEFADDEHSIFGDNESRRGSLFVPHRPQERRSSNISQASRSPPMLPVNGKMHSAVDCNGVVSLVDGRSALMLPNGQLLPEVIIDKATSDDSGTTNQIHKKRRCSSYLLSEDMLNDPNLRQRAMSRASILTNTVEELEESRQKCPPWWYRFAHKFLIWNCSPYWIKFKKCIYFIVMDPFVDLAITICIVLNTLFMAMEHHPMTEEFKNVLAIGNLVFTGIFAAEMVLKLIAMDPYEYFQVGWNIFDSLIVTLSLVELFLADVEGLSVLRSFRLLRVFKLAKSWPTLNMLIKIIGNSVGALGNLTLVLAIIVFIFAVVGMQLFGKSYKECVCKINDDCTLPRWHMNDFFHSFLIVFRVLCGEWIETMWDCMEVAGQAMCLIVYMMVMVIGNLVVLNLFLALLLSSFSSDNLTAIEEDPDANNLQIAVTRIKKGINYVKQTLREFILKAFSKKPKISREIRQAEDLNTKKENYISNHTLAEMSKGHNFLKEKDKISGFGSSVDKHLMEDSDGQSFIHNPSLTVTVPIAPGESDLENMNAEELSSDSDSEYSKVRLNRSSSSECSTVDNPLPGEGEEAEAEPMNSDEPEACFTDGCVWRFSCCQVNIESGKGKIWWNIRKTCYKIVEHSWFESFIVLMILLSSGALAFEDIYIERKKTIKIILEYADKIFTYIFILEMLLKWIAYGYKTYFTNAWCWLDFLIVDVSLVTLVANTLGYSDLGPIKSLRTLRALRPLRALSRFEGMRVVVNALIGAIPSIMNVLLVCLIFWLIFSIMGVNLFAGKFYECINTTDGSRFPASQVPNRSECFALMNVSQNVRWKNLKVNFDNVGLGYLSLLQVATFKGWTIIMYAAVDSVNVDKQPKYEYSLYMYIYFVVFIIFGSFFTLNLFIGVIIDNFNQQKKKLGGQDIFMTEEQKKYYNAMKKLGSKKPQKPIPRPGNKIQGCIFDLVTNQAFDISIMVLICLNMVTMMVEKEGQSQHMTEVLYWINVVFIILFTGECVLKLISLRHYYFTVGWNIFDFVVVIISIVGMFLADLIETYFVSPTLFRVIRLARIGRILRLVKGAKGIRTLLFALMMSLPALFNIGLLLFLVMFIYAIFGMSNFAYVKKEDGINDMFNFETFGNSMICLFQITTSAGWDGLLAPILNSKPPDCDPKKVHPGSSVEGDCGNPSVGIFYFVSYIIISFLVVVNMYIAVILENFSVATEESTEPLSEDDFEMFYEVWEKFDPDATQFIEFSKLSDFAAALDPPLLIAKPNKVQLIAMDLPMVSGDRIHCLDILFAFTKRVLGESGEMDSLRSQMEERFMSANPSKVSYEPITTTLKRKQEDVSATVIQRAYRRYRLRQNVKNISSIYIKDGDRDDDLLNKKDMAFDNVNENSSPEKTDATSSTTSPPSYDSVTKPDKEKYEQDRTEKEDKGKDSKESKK

On to `O=S(=O)(Nc1nccs1)c1ccc(Nc2nc(Cc3ccc(Cl)cc3)cs2)cc1F` [Compound 1, 4-[4-(4-Chloro-benzyl)-thiazol-2-ylamino]-2-fluoro-N-thiazol-2-yl-benzenesulfonamide], for which the IC50 in experiment [1] (setting [3]) and in experiment [2] (setting [3]) was less than 2000 nM throughout.

For `O=S(=O)(Nc1nccs1)c1ccc(Nc2nc(C(c3ccccc3)c3ccccc3)cs2)cc1` [Compound 2, 4-(4-Benzhydrylthiazol-2-ylamino)-N-(thiazol-2-yl)benzenesulfonamide], the IC50 is less than 2000 nM in experiment [1] (setting [3]) and 2000 to 10000 nM in experiment [2] (setting [3]).

On to `COc1ccc(Cc2csc(Nc3ccc(S(=O)(=O)Nc4nccs4)c(F)c3)n2)cc1` [Compound 3, 2-Fluoro-4-[4-(4-methoxy-benzyl)-thiazol-2-ylamino]-N-thiazol-2-yl-benzenesulfonamide], for which the figures for the IC50 in experiment [1] (setting [3]) and in experiment [2] (setting [3]) were less than 2000 nM and greater than 10000 nM, respectively.

`CS(=O)(=O)c1ccc(Cc2csc(Nc3ccc(S(=O)(=O)Nc4nccs4)c(F)c3)n2)cc1` [Compound 4, 2-Fluoro-4-[4-(4-methanesulfonyl-benzyl)-thiazol-2-ylamino]-N-thiazol-2-yl-benzenesulfonamide]: the IC50 was less than 2000 nM in experiment [1] (setting [3]) and 2000 to 10000 nM in experiment [2] (setting [3]).

Take `N#Cc1ccc(Cc2csc(Nc3ccc(S(=O)(=O)Nc4nccs4)c(F)c3)n2)cc1` [Compound 5, 4-[4-(4-Cyano-benzyl)-thiazol-2-ylamino]-2-fluoro-N-thiazol-2-yl-benzenesulfonamide]: the IC50 in experiment [1] (setting [3]) is less than 2000 nM; in experiment [2] (setting [3]), 2000 to 10000 nM.

Regarding `O=S(=O)(Nc1nccs1)c1ccc(Nc2nc(CCCCl)cs2)cc1` [Compound 59, 4-(4-(3-chloropropyl)thiazol-2-ylamino)-N-(thiazol-2-yl)benzenesulfonamide], in experiment [1] (setting [4]), the IC50 is less than 2000 nM.

As to `COc1ccnc(Nc2ccc(S(=O)(=O)Nc3cc(C)on3)cc2)n1` [Compound 86, 4-(4-methoxypyrimidin-2-ylamino)-N-(5-methylisoxazol-3-yl)benzenesulfonamide], the IC50 in experiment [1] (setting [4]) was greater than 1000 nM.

In the case of `Cc1cc(NS(=O)(=O)c2ccc(Nc3nccc(OCc4ccc(C(F)(F)F)cc4)n3)cc2)no1` [Compound 87, N-(5-methylisoxazol-3-yl)-4-(4-(4-(trifluoromethyl)benzyloxy)pyrimidin-2-ylamino)benzenesulfonamide], the IC50 in experiment [1] (setting [4]) was greater than 1000 nM.

Consider `Cc1cc(NS(=O)(=O)c2ccc(Nc3ccnc(OCc4ccc(C(F)(F)F)cc4)n3)cc2)no1` [Compound 88, N-(5-methylisoxazol-3-yl)-4-(2-(4-(trifluoromethyl)benzyloxy)pyrimidin-4-ylamino)benzenesulfonamide], for which the IC50 in experiment [1] (setting [4]) is 2000 to 10000 nM.

Turning to `N#Cc1cc(S(=O)(=O)Nc2ncns2)ccc1Nc1nnc(-c2ccccc2)c(O)n1` [Compound 273, 3-cyano-4-(5-hydroxy-6-phenyl-1,2,4-triazin-3-ylamino)-N-(1,2,4-thiadiazol-5-yl)benzenesulfonamide], the IC50 in experiment [2] (setting [5]) is greater than 1000 nM.

Regarding `O=S(=O)(Nc1nccs1)c1ccc2c(cnn2Cc2ccc(OC(F)(F)F)cc2)c1` [Compound 274, N-(thiazol-2-yl)-1-(4-(trifluoromethoxy)benzyl)-1H-indazole-5-sulfonamide], the IC50 in experiment [2] (setting [5]) was less than 2000 nM.

As to `O=S(=O)(Nc1nccs1)c1ccc2nn(Cc3ccc(OC(F)(F)F)cc3)cc2c1` [Compound 275, N-(thiazol-2-yl)-2-(4-(trifluoromethoxy)benzyl)-2H-indazole-5-sulfonamide], the IC50 in experiment [2] (setting [5]) was 2000 to 10000 nM.

For `O=S(=O)(Nc1nccs1)c1ccc2c(cnn2CCCCc2ccccc2)c1` [Compound 278, 1-(4-phenylbutyl)-N-(thiazol-2-yl)-1H-indazole-5-sulfonamide], the IC50 in experiment [2] (setting [5]) is less than 2000 nM.

In the case of `O=S(=O)(Nc1nccs1)c1ccc2nn(CCCCc3ccccc3)cc2c1` [Compound 279, 2-(4-phenylbutyl)-N-(thiazol-2-yl)-2H-indazole-5-sulfonamide], the IC50 in experiment [2] (setting [5]) is 2000 to 10000 nM.
